Test results as given in PubChem BioAssay (NCI).
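Exposure lasted 48 hours, with cells grown in 96-well plates and compounds tested at five concentrations. TGI denotes the concentration required for complete inhibition of growth.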

What was measured:
Test in all cases: inhibition of tumour cell growth, NCI panel, 48 h
[1] = system: A498 renal
[2] = system: ACHN renal
[3] = system: BT-549 breast
[4] = system: HCT-15 colon
[5] = system: HS 578T breast
[6] = system: HT29 colon
[7] = system: KM12 colon
[8] = system: LOX IMVI melanoma
[9] = system: MALME-3M melanoma
[10] = system: MDA-MB-435
[11] = system: MDA-N
[12] = system: MOLT-4 leukemia
[13] = system: NCI-H226 lung
[14] = system: OVCAR-4 ovarian
[15] = system: RPMI-8226 leukemia
[16] = system: SK-MEL-2 melanoma
[17] = system: SK-MEL-5 melanoma
[18] = system: SNB-19 CNS
[19] = system: SNB-75 CNS
[20] = system: SR leukemia

Row | SMILES | TGI [1] [µM] | TGI [2] [µM] | TGI [3] [µM] | TGI [4] [µM] | TGI [5] [µM] | TGI [6] [µM] | TGI [7] [µM] | TGI [8] [µM] | TGI [9] [µM] | TGI [10] [µM] | TGI [11] [µM] | TGI [12] [µM] | TGI [13] [µM] | TGI [14] [µM] | TGI [15] [µM] | TGI [16] [µM] | TGI [17] [µM] | TGI [18] [µM] | TGI [19] [µM] | TGI [20] [µM]
1 | O=c1oc2ccccc2cc1-c1cn2ccccc2n1 | 6.49 | 11.4 | 26.3 | 38.9 | 53.5 | 51.7 | 37.2 | 33.4 | 14.7 | 14.5 | 19.8 | > 80.8 | 26.7 | > 42.1 | 47.3 | 14.4 | 20.1 | 12.7 | 6.37 | > 35.5
2 | CCCCCCOc1ccc(Nc2c(O)c3c(c(O)c2Cl)C(=O)C=CC3=O)cc1 | > 10 | > 10 | > 6.01 | 3.68 | 8.39 | > 7.46 | > 7.66 | 3.61 | 4.04 | 3.9 | > 6.89 | > 6.98 | > 10 | > 8.13 | 5.11 | 7.05 | 3.02 | > 9.63 | > 10 | 5.33
3 | O=C1C=CC(=O)c2c1ccc1c3ccccc3n(-c3cccc([N+](=O)[O-])c3)c21 | > 10 | 3.36 | 3.31 | 7.09 | > 10 | > 10 | > 10 | > 10 | 4 | 4.37 | 4.82 | 1.07 | > 10 | > 5.95 | 3.9 | > 10 | > 10 | > 10 | > 10 | 0.961
4 | O=C1NC(=O)C(c2c[nH]c3ccccc23)=C1c1cn(C(c2ccccc2)(c2ccccc2)c2ccccc2)cn1 | 18.3 | 26.6 | 27.2 | 14.9 | 68.2 | 13.3 | 13.5 | 22.2 | 23.2 | 12.9 | 17.9 | 7.39 | 19.9 | 17.5 | 10.4 | 25.6 | 20.8 | 65.3 | 22.1 | 6.78
5 | Cc1nc2ccc(NC(=S)Nc3ccccc3)cc2c(=O)n1-c1ccccc1 | > 100 | > 100 | > 100 | > 100 | > 100 | > 100 | > 100 | > 100 | > 100 | > 100 | > 100 | > 100 | > 100 | > 100 | 94.6 | > 100 | > 100 | > 100 | > 100 | > 100
6 | Nc1nc(Cl)c(N)c(NCC2(CO)CCCC2)n1 | > 100 | > 100 | > 100 | > 100 | > 100 | > 100 | > 100 | > 100 | > 100 | > 100 | > 100 | > 100 | > 100 | > 100 | > 100 | > 100 | > 100 | > 100 | > 100 | > 100
7 | O=C(NCCCl)N(O)C(=O)Nc1ccccc1 | > 100 | > 100 | > 100 | > 100 | > 100 | > 100 | > 100 | > 100 | > 100 | > 100 | > 100 | > 100 | > 100 | > 100 | > 100 | > 100 | > 100 | > 100 | > 100 | > 100
8 | O=C(Oc1cccnc1)c1cc2cc(CCl)ccc2oc1=O | > 100 | > 100 | 53.7 | 58.5 | 55.1 | 39.9 | > 100 | 44.7 | 54.9 | 73 | > 100 | 61.4 | > 100 | 60.3 | 66 | 54 | > 100 | > 100 | 79.7 | 73.6
9 | O=C1c2cccc3cccc(c23)C(=O)N1CCCNCCCNCCCCNCCCNCCCN1C(=O)c2cccc3cccc(c23)C1=O | 25.2 | 15.3 | 15.1 | 30.9 | 13.3 | 5.5 | 13.9 | > 38.1 | 7.03 | 10.1 | 6.83 | 2.84 | 28.6 | 19.1 | > 34 | 16.8 | 41.1 | 15.9 | 12.5 | > 31.8
